The values below come from US10358463B2, “Immunomodulators” (BRISTOL-MYERS SQUIBB COMPANY, priority 2016, dated 2019).

pIC50: −log10 of the molar value. Numbered stars: 1 amine (or outer) side, 2 acyl side, 3 side chain; on linkers, the order of the positions; unused ones are H or OH. Bridge positions count the residues as written; N and C are the ends. Square brackets hold non-standard residues; d marks the D form. Peptide text beside a SMILES is read from it. Trp(1-CH2CONHSO2Me) = CS(=O)(=O)NC(=O)Cn1cc(C[C@H](N)C(=O)O)c2ccccc21; Trp(4-aza,1-CH2COOH) = N[C@@H](Cc1cn(CC(=O)O)c2cccnc12)C(=O)O; Trp(7-aza,1-CH2COOH) = N[C@@H](Cc1cn(CC(=O)O)c2ncccc12)C(=O)O; X10 = COc1ccc2c(c1)c(C[C@H](N[*:1])C(=O)[*:2])cn2CC(=O)O; X17 = O=C([C@H](Cc1cn(Cc2nnn[nH]2)c2ccccc12)N[*:1])[*:2]; X18 = O=C(O)Cn1c(=O)n(C[C@H](N[*:1])C(=O)[*:2])c2ccccc21; X5 = O=C(O)Cn1nc(C[C@H](N[*:1])C(=O)[*:2])c2ccccc21; Phe(4-Cl) = N[C@@H](Cc1ccc(Cl)cc1)C(=O)O; Hyp = O=C(O)[C@@H]1C[C@@H](O)CN1; NMeNle = CCCC[C@H](NC)C(=O)O; Pen = CC(C)(S)[C@H](N)C(=O)O; Pip = O=C(O)[C@@H]1CCCCN1; NMeA = CN[C@@H](C)C(=O)O; Dab = NCC[C@H](N)C(=O)O; Dap = NC[C@H](N)C(=O)O

A word on the pIC50: it is the negative decadic logarithm of the IC50, by convention in mol/L.

For one experiment, the target named is T1, PD-1-Ig binding to PD-L1-TVMV-His (PD-L1-His) (Homo sapiens, UniProt Q9NZQ7).
T1 construct: hPDL1 (19-239)-TVMV-His; TVMV protease cleavage site (C); made in house; host or cells: HEK293T cells
T1 sequence (Q9NZQ7 with tags, fused parts or gaps): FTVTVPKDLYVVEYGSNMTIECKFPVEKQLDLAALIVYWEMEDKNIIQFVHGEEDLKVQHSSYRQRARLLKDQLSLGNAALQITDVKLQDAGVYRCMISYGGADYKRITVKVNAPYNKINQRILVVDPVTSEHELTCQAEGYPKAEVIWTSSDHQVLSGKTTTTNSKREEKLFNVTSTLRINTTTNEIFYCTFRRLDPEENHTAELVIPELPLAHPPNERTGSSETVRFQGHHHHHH
The experiment in a line: PD-1/PD-L1 Homogenous Time-Resolved Fluorescence (HTRF) binding assay. The following applies: PD-1-Ig (20 nM)/PD-L1-His (10 nM); numeric value. From the text:
The ability of the macrocyclic peptides of the present disclosure to bind to PD-L1 was investigated using a PD-1/PD-L1 Homogenous Time-Resolved Fluorescence (HTRF) binding assay.
Homogenous Time-Resolved Fluorescence (HTRF) Assays of Binding of Soluble PD-1 to Soluble PD-L1. Soluble PD-1 and soluble PD-L1 refers to proteins with carboxyl-end truncations that remove the transmembrane-spanning regions and are fused to heterologous sequences, specifically the Fc portion of the human immunoglobuling G sequence (Ig) or the hexahistidine epitope tag (His). All binding studies were performed in an HTRF assay buffer consisting of dPBS supplemented with 0.1% (w/v) bovine serum albumin and 0.05% (v/v) Tween-20. For the PD-1-Ig/PD-L1-His binding assay, inhibitors were pre-incubated with PD-L1-His (10 nM final) for 15 m in 4 μl of assay buffer, followed by addition of PD-1-Ig (20 nM final) in 1 μl of assay buffer and further incubation for 15 m. PD-L1 fusion proteins from either human, cynomologous macaques, mouse, or other species were used. HTRF detection was achieved using europium crypate-labeled anti-Ig monoclonal antibody (1 nM final) and allophycocyanin (APC) labeled anti-His monoclonal antibody (20 nM final). Antibodies were diluted in HTRF detection buffer and 5 μl was dispensed on top of binding reaction. The reaction was allowed to equilibrate for 30 minutes and signal (665 nm/620 nm ratio) was obtained using an EnVision fluorometer. Additional binding assays were established between PD-1-Ig/PD-L2-His (20 and 5 nM, respectively), CD80-His/PD-L1-Ig (100 and 10 nM, respectively) and CD80-His/CTLA4-Ig (10 and 5 nM, respectively). Binding/competition studies between biotinylated Compound No. 71 and human PD-L1-His were performed as follows. Macrocyclic peptide inhibitors were pre-incubated with PD-L1-His (10 nM final) for 60 minutes in 4 μl of assay buffer followed by addition of biotinylated Compound No. 71 (0.5 nM final) in 1 μl of assay buffer. Binding was allowed to equilibrate for 30 minutes followed by addition of europium crylated labeled Streptavidin (2.5 pM final) and APC-labeled anti-His (20 nM final) in 5 μl of HTRF buffer. The reaction was allowed to equilibrate for 30 m and signal (665 nm/620 nm ratio) was obtained using an EnVision fluorometer.
Recombinant Proteins. Carboxyl-truncated human PD-1 (amino acids 25-167) with a C-terminal human Ig epitope tag [hPD-1 (25-167)-3S-IG] and human PD-L1 (amino acids 18-239) with a C-terminal His epitope tag [hPD-L1(19-239)-tobacco vein mottling virus protease cleavage site (TVMV)-His] were expressed in HEK293T cells and purified sequentially by recombinant Protein A affinity chromatography and size exclusion chromatography. Human PD-L2-His (Sino Biologicals), CD80-His (Sino Biologicals), CTLA4-Ig (RnD Systems) were all obtained through commercial sources.
For orientation: Time-resolved FRET reads energy transfer from a long-lived donor to a nearby acceptor.
Regarding `CCCC[C@H]1C(=O)N(C)[C@@H](CCCC)C(=O)N[C@@H](CC(C)C)C(=O)N[C@H](C(N)=O)CSCC(=O)N[C@@H](Cc2ccc(O)cc2)C(=O)N(C)[C@@H](C)C(=O)N[C@@H](CC(N)=O)C(=O)N2CCC[C@H]2C(=O)N[C@@H](CN)C(=O)N[C@@H](CC(C)C)C(=O)N2C[C@H](O)C[C@H]2C(=O)N[C@@H](Cc2c[nH]c3ccccc23)C(=O)N[C@@H](CCN)C(=O)N[C@@H](Cc2cn(CC(=O)O)c3cccnc23)C(=O)N1C` [Example 10502] ({CH2CO}-Y[NMeA]NP[Dap]L[Hyp]W[Dab][Trp(4-aza,1-CH2COOH)][NMeNle][NMeNle]LC-NH2; thioether N-14), the pIC50 was 7.89.

Staying with this experiment, now noted: PD-1-Ig (20 nM)/PD-L1-His (10 nM); range class.
Compound `CCCC[C@H]1C(=O)N(C)[C@@H](CCCC)C(=O)N[C@@H](CC(C)C)C(=O)N[C@H](C(=O)NCC(N)=O)CSCC(=O)N[C@@H](Cc2ccc(O)cc2)C(=O)N(C)[C@@H](C)C(=O)N[C@@H](CC(N)=O)C(=O)N2CCC[C@H]2C(=O)N[C@@H](CN)C(=O)N[C@@H](CC(C)C)C(=O)N2C[C@H](O)C[C@H]2C(=O)N[C@@H](Cc2c[nH]c3ccccc23)C(=O)N[C@@H](CCN)C(=O)N[C@@H](Cc2cn(CC(=O)O)c3ncccc23)C(=O)N1C` [Example 10505] ({CH2CO}-Y[NMeA]NP[Dap]L[Hyp]W[Dab][Trp(7-aza,1-CH2COOH)][NMeNle][NMeNle]LCG-NH2; thioether N-14) had a pIC50 of 7.00 to 8.00.
The compound `CCCC[C@H]1C(=O)N(C)[C@@H](CCCC)C(=O)N[C@@H](CC(C)C)C(=O)N[C@H](C(=O)NCC(N)=O)CSCC(=O)N[C@@H](Cc2ccc(O)cc2)C(=O)N(C)[C@@H](C)C(=O)N[C@@H](CC(N)=O)C(=O)N2CCC[C@H]2C(=O)N[C@@H](CN)C(=O)N[C@@H](CC(C)C)C(=O)N2C[C@H](O)C[C@H]2C(=O)N[C@@H](Cc2c[nH]c3ccccc23)C(=O)N[C@@H](CCN)C(=O)N[C@@H](Cn2c(=O)n(CC(=O)O)c3ccccc32)C(=O)N1C` [Example 1015] ({CH2CO}-Y[NMeA]NP[Dap]L[Hyp]W[Dab][X18][NMeNle][NMeNle]LCG-NH2; thioether N-14) gave a pIC50 of 8.00 to 9.00.
In the case of `CCCC[C@H]1C(=O)N(C)[C@@H](CCCC)C(=O)N[C@@H](CC(C)C)C(=O)N[C@H](C(N)=O)CSCC(=O)N[C@@H](Cc2ccc(O)cc2)C(=O)N(C)[C@@H](C)C(=O)N[C@@H](CC(N)=O)C(=O)N2CCC[C@H]2C(=O)N[C@@H](CN)C(=O)N[C@@H](CC(C)C)C(=O)N2C[C@H](O)C[C@H]2C(=O)N[C@@H](Cc2c[nH]c3ccccc23)C(=O)N[C@@H](CCN)C(=O)N[C@@H](Cc2cn(CC(=O)O)c3ccc(OC)cc23)C(=O)N1C` [Example 10503] ({CH2CO}-Y[NMeA]NP[Dap]L[Hyp]W[Dab][X10][NMeNle][NMeNle]LC-NH2; thioether N-14), the pIC50 was 8.00 to 9.00.
Same read-out and setting: the value for `CCCC[C@H]1C(=O)N(C)[C@@H](CCCC)C(=O)N[C@@H](CC(C)C)C(=O)N[C@H](C(N)=O)CSCC(=O)N[C@@H](Cc2ccc(O)cc2)C(=O)N(C)[C@@H](C)C(=O)N[C@@H](CC(N)=O)C(=O)N2CCC[C@H]2C(=O)N[C@@H](CN)C(=O)N[C@@H](CC(C)C)C(=O)N2C[C@H](O)C[C@H]2C(=O)N[C@@H](Cc2c[nH]c3ccccc23)C(=O)N[C@@H](CCN)C(=O)N[C@@H](Cc2cn(CC(=O)O)c3ncccc23)C(=O)N1C` [Example 10504] ({CH2CO}-Y[NMeA]NP[Dap]L[Hyp]W[Dab][Trp(7-aza,1-CH2COOH)][NMeNle][NMeNle]LC-NH2; thioether N-14) was 8.00 to 9.00; that for `CCCC[C@H]1C(=O)N(C)[C@@H](CCCC)C(=O)N[C@@H](CC(C)C)C(=O)N[C@H](C(N)=O)C(C)(C)SCC(=O)N[C@@H](Cc2ccc(Cl)cc2)C(=O)N2CCCC[C@H]2C(=O)N[C@@H](CC(=O)O)C(=O)N2CCC[C@H]2C(=O)N[C@@H](CN)C(=O)N[C@@H](CCC(=O)O)C(=O)N2C[C@H](O)C[C@H]2C(=O)N[C@@H](Cc2c[nH]c3ccccc23)C(=O)N[C@@H](CCN)C(=O)N[C@@H](Cc2cn(CC(=O)NS(C)(=O)=O)c3ccccc23)C(=O)N1C` [Example 1005] ({CH2CO}-[Phe(4-Cl)][Pip]DP[Dap]E[Hyp]W[Dab][Trp(1-CH2CONHSO2Me)][NMeNle][NMeNle]L[Pen]-NH2; thioether N-14) was 8.00 to 9.00.
For the compound `CCCC[C@H]1C(=O)N(C)[C@@H](CCCC)C(=O)N[C@@H](CC(C)C)C(=O)N[C@H](C(N)=O)C(C)(C)SCC(=O)N[C@@H](Cc2ccc(Cl)cc2)C(=O)N2CCCC[C@H]2C(=O)N[C@@H](CC(=O)O)C(=O)N2CCC[C@H]2C(=O)N[C@@H](Cc2cnc[nH]2)C(=O)N[C@@H](CCC(=O)O)C(=O)N2C[C@H](O)C[C@H]2C(=O)N[C@@H](Cc2c[nH]c3ccccc23)C(=O)N[C@@H](CCN)C(=O)N[C@@H](Cc2cn(CC(=O)NS(C)(=O)=O)c3ccccc23)C(=O)N1C` [Example 1008] ({CH2CO}-[Phe(4-Cl)][Pip]DPHE[Hyp]W[Dab][Trp(1-CH2CONHSO2Me)][NMeNle][NMeNle]L[Pen]-NH2; thioether N-14), the pIC50 is 8.00 to 9.00.
The same measure, in the same setting: the figure for `CCCC[C@H]1C(=O)N(C)[C@@H](CCCC)C(=O)N[C@@H](CC(C)C)C(=O)N[C@H](C(=O)NCC(N)=O)CSCC(=O)N[C@@H](Cc2ccc(O)cc2)C(=O)N(C)[C@@H](C)C(=O)N[C@@H](CC(N)=O)C(=O)N2CCC[C@H]2C(=O)N[C@@H](CN)C(=O)N[C@@H](CC(C)C)C(=O)N2C[C@H](O)C[C@H]2C(=O)N[C@@H](Cc2c[nH]c3ccccc23)C(=O)N[C@@H](CCN)C(=O)N[C@@H](Cc2cn(Cc3nnn[nH]3)c3ccccc23)C(=O)N1C` [Example 1020] ({CH2CO}-Y[NMeA]NP[Dap]L[Hyp]W[Dab][X17][NMeNle][NMeNle]LCG-NH2; thioether N-14) is less than 6.00; for `CCCC[C@H]1C(=O)N(C)[C@@H](CCCC)C(=O)N[C@@H](CC(C)C)C(=O)N[C@H](C(N)=O)C(C)(C)SCC(=O)N[C@@H](Cc2ccc(O)cc2)C(=O)N2CCCC[C@H]2C(=O)N[C@@H](CC(=O)O)C(=O)N2CCC[C@H]2C(=O)N[C@@H](Cc2cnc[nH]2)C(=O)N[C@@H](CCC(=O)O)C(=O)N2C[C@H](O)C[C@H]2C(=O)N[C@@H](Cc2c[nH]c3ccccc23)C(=O)N[C@@H](CCN)C(=O)N[C@@H](Cc2cn(CC(=O)NS(C)(=O)=O)c3ccccc23)C(=O)N1C` [Example 1010] ({CH2CO}-Y[Pip]DPHE[Hyp]W[Dab][Trp(1-CH2CONHSO2Me)][NMeNle][NMeNle]L[Pen]-NH2; thioether N-14) it is 8.00 to 9.00.
In turn, `CCCC[C@H]1C(=O)N(C)[C@@H](CCCC)C(=O)N[C@@H](CC(C)C)C(=O)N[C@H](C(N)=O)CSCC(=O)N[C@@H](Cc2ccc(O)cc2)C(=O)N(C)[C@@H](C)C(=O)N[C@@H](CC(N)=O)C(=O)N2CCC[C@H]2C(=O)N[C@@H](CN)C(=O)N[C@@H](CC(C)C)C(=O)N2C[C@H](O)C[C@H]2C(=O)N[C@@H](Cc2c[nH]c3ccccc23)C(=O)N[C@@H](CCN)C(=O)N[C@@H](Cc2nn(CC(=O)O)c3ccccc23)C(=O)N1C` [Example 10501] ({CH2CO}-Y[NMeA]NP[Dap]L[Hyp]W[Dab][X5][NMeNle][NMeNle]LC-NH2; thioether N-14) gave a pIC50 of 8.00 to 9.00.
On the same count and under the same terms, the value for `CCCC[C@H]1C(=O)N(C)[C@@H](CCCC)C(=O)N[C@@H](CC(C)C)C(=O)N[C@H](C(=O)NCC(N)=O)CSCC(=O)N[C@@H](Cc2ccc(O)cc2)C(=O)N(C)[C@@H](C)C(=O)N[C@@H](CC(N)=O)C(=O)N2CCC[C@H]2C(=O)N[C@@H](CN)C(=O)N[C@@H](CC(C)C)C(=O)N2C[C@H](O)C[C@H]2C(=O)N[C@@H](Cc2c[nH]c3ccccc23)C(=O)N[C@@H](CCN)C(=O)N[C@@H](Cc2cn(CC(=O)O)c3ccc(OC)cc23)C(=O)N1C` [Example 10506] ({CH2CO}-Y[NMeA]NP[Dap]L[Hyp]W[Dab][X10][NMeNle][NMeNle]LCG-NH2; thioether N-14) was 8.00 to 9.00.
